Experimental data taken from ChEMBL document CHEMBL5126557, “Design, synthesis, and bio-evaluation of novel triterpenoid derivatives as anti-HIV-1 compounds” (Bioorg Med Chem Lett, 2022).
pIC50: −log10 of the molar value.

What was measured:
[1] = Cytotoxicity against human TZM-bl cells assessed as reduction in cell viability by CellTitre-Glo assay; format: toxicity, cell-based
[2] = tested on: Human immunodeficiency virus 1; test: Antiviral activity against HIV-1 NL4-3(X4) infected in human TZM-bl cells assessed as reduction in viral replication; format: functional, organism-based; conditions: Human immunodeficiency virus 1, NL4-3(X4)
[3] = tested on: Human immunodeficiency virus 1; test: Antiviral activity against HIV-1 YU2 […] infected in human TZM-bl cells assessed as reduction in viral replication; format: functional, organism-based; conditions: Human immunodeficiency virus 1, YU2[…]
[4] = tested on: Human immunodeficiency virus 1; test: Antiviral activity against HIV-1 89.6 infected in human TZM-bl cells assessed as reduction in viral replication; format: functional, organism-based; conditions: Human immunodeficiency virus 1, 89.6, TZM-bl
[5] = Selectivity index, ratio of CC50 for human TZM-bl cells to IC50 for IC50 for antiviral activity against HIV-1 89.6 infected in human TZM-bl cells; format: toxicity, cell-based; conditions: read-out: Ratio CC50/IC50
[6] = tested on: Human immunodeficiency virus 1; test: Synergistic antiviral activity against HIV-1 89.6 infected in human TZM-bl cells assessed as combination index at 450:1 compound and b12 antibody ratio; format: functional
[7] = tested on: Human immunodeficiency virus 1; test: Synergistic antiviral activity against HIV-1 89.6 infected in human TZM-bl cells assessed as combination index at 45:1 compound and KD-247 antibody ratio; format: functional
[8] = tested on: Human immunodeficiency virus 1; test: Synergistic antiviral activity against HIV-1 89.6 infected in human TZM-bl cells assessed as combination index at 45:1 compound and 4E10 antibody ratio; format: functional
[9] = tested on: Human immunodeficiency virus 1; test: Synergistic antiviral activity against HIV-1 89.6 infected in human TZM-bl cells assessed as compound dose reduction index at 45:1 compound and 4E10 antibody ratio; format: functional
[10] = tested on: Human immunodeficiency virus 1; test: Synergistic antiviral activity against HIV-1 89.6 infected in human TZM-bl cells assessed as compound dose reduction index at 45:1 compound and 447-52D antibody ratio; format: functional
[11] = tested on: Human immunodeficiency virus 1; test: Synergistic antiviral activity against HIV-1 89.6 infected in human TZM-bl cells assessed as antibody dose reduction index at 45:1 compound and 447-52D antibody ratio; format: functional
[12] = tested on: Human immunodeficiency virus 1; test: Synergistic antiviral activity against HIV-1 89.6 infected in human TZM-bl cells assessed as compound dose reduction index at 45:1 compound and KD-247 antibody ratio; format: functional
[13] = tested on: Human immunodeficiency virus 1; test: Synergistic antiviral activity against HIV-1 89.6 infected in human TZM-bl cells assessed as compound dose reduction index at 45:1 compound and 2F5 antibody ratio; format: functional
[14] = tested on: Human immunodeficiency virus 1; test: Synergistic antiviral activity against HIV-1 89.6 infected in human TZM-bl cells assessed as antibody dose reduction index at 450:1 compound and b12 antibody ratio; format: functional
[15] = tested on: Human immunodeficiency virus 1; test: Synergistic antiviral activity against HIV-1 89.6 infected in human TZM-bl cells assessed as antibody dose reduction index at 45:1 compound and 2F5 antibody ratio; format: functional
[16] = tested on: Human immunodeficiency virus 1; test: Synergistic antiviral activity against HIV-1 89.6 infected in human TZM-bl cells assessed as antibody dose reduction index at 45:1 compound and 2G12 antibody ratio; format: functional
[17] = tested on: Human immunodeficiency virus 1; test: Synergistic antiviral activity against HIV-1 89.6 infected in human TZM-bl cells assessed as combination index at 45:1 compound and 2F5 antibody ratio; format: functional
[18] = tested on: Human immunodeficiency virus 1; test: Synergistic antiviral activity against HIV-1 89.6 infected in human TZM-bl cells assessed as combination index at 45:1 compound and 2G12 antibody ratio; format: functional
[19] = tested on: Human immunodeficiency virus 1; test: Synergistic antiviral activity against HIV-1 89.6 infected in human TZM-bl cells assessed as compound dose reduction index at 450:1 compound and b12 antibody ratio; format: functional
[20] = tested on: Human immunodeficiency virus 1; test: Synergistic antiviral activity against HIV-1 89.6 infected in human TZM-bl cells assessed as antibody dose reduction index at 45:1 compound and KD-247 antibody ratio; format: functional
[21] = tested on: Human immunodeficiency virus 1; test: Synergistic antiviral activity against HIV-1 89.6 infected in human TZM-bl cells assessed as antibody dose reduction index at 45:1 compound and 4E10 antibody ratio; format: functional
[22] = tested on: Human immunodeficiency virus 1; test: Synergistic antiviral activity against HIV-1 89.6 infected in human TZM-bl cells assessed as compound dose reduction index at 45:1 compound and 2G12 antibody ratio; format: functional
[23] = tested on: Human immunodeficiency virus 1; test: Synergistic antiviral activity against HIV-1 89.6 infected in human TZM-bl cells assessed as combination index at 45:1 compound and 447-52D antibody ratio; format: functional

SMILES | pIC50 [2] | pIC50 [3] | pIC50 [4] | CC50 [1] | selectivity ratio [5] | also measured
C=C(C)[C@@H]1CC[C@]2(C(=O)NCCCCCCCC(=O)N[C@@H](CC(C)C)[C@H](O)CC(=O)O)CC[C@]3(C)[C@H](CC[C@@H]4[C@@]5(C)CC[C@H](O)C(C)(C)[C@@H]5CC[C@]43C)[C@@H]12 | 6.49 | 5.24 | 6.70 | 8.9 µM | 45 | –
CC(C)C[C@H](NC(=O)CCCCCCCNC(=O)[C@]12CC[C@@H](C)[C@H](C)[C@H]1C1=CC[C@@H]3[C@@]4(C)CC[C@H](O)C(C)(C)[C@@H]4CC[C@@]3(C)[C@]1(C)CC2)[C@@H](O)CC(=O)O | 5.43 | 4.37 | 5.46 | 95 µM | 27 | –
CC(C)C[C@H](NC(=O)CCCCCCCNC(=O)[C@]12CC[C@@H](C)[C@H](C)[C@H]1C1=CC[C@@H]3[C@@]4(C)CC[C@H](O)C(C)(C)[C@@H]4CC[C@@]3(C)[C@]1(C)CC2)[C@H](O)CC(=O)O | 5.41 | 4.40 | 5.96 | 71 µM | 65 | –
C=C(C)[C@@H]1CC[C@]2(C(=O)NCCCCCCCC(=O)N[C@@H](CC(C)C)[C@@H](O)CC(=O)O)CC[C@]3(C)[C@H](CC[C@@H]4[C@@]5(C)CC[C@H](O)C(C)(C)[C@@H]5CC[C@]43C)[C@@H]12 | 6.57 | 4.10 | 6.77 | 17 µM | 100 | –

The next lines start with results.

pIC50 [2] | pIC50 [3] | pIC50 [4] | SMILES | CC50 [1] | selectivity ratio [5] | also measured
5.77 | 4.60 | 6.10 | CC(C)C[C@H](NC(=O)CCCCCCCNC(=O)[C@]12CCC(C)(C)C[C@H]1C1=CC[C@@H]3[C@@]4(C)CC[C@H](O)C(C)(C)[C@@H]4CC[C@@]3(C)[C@]1(C)CC2)[C@@H](O)CC(=O)O | 78 µM | 99 | CI [6]: 0.68; CI [7]: 0.75; CI [8]: 0.59; Activity_index [9]: 2.9; Activity_index [10]: 3.8; Activity_index [11]: 3.9; Activity_index [12]: 3.3; Activity_index [13]: 4.3; Activity_index [14]: 3.6; Activity_index [15]: 2.7; Activity_index [16]: 3.1; CI [17]: 0.69; CI [18]: 0.59; Activity_index [19]: 3.2; Activity_index [20]: 2.9; Activity_index [21]: 5.5; Activity_index [22]: 4.9; CI [23]: 0.59
< 4.00 | < 4.00 | < 4.00 | CC(C)C[C@H](NC(=O)CCCCCCCNC(=O)[C@@]1(C)CC[C@]2(C)CC[C@]3(C)C(=CC(=O)[C@@H]4[C@@]5(C)CC[C@H](O)C(C)(C)[C@@H]5CC[C@]43C)[C@@H]2C1)[C@@H](O)CC(=O)O | > 300 µM | – | –
6.30 | 4.80 | 6.41 | CC(C)C[C@H](NC(=O)CCCCCCCNC(=O)[C@]12CCC(C)(C)C[C@H]1[C@H]1C(=O)C[C@@H]3[C@@]4(C)CC[C@H](O)C(C)(C)[C@@H]4CC[C@@]3(C)[C@]1(C)CC2)[C@@H](O)CC(=O)O | 128 µM | 328 | –
< 4.00 | < 4.00 | < 4.00 | CC(C)C[C@H](NC(=O)CCCCCCCNC(=O)[C@@]1(C)CC[C@]2(C)CC[C@]3(C)C(=CC(=O)[C@@H]4[C@@]5(C)CC[C@H](O)C(C)(C)[C@@H]5CC[C@]43C)[C@@H]2C1)[C@H](O)CC(=O)O | > 300 µM | – | –
5.49 | 4.38 | 6.00 | CC(C)C[C@H](NC(=O)CCCCCCCNC(=O)[C@]12CCC(C)(C)C[C@H]1C1=CC[C@@H]3[C@@]4(C)CC[C@H](O)C(C)(C)[C@@H]4CC[C@@]3(C)[C@]1(C)CC2)[C@H](O)CC(=O)O | 26 µM | 26 | –
